Reference: patent publication US9648878B2, “Herbicidal agents containing flufenacet” (BAYER CROPSCIENCE AG, priority 2012, dated 2017)

What was measured:
[1] = tested on: LOLSS resistant to HRAC group B; experiment: Greenhouse post-emergence herbicidal action on resistant Lolium biotype (HRAC group B resistant); format: in vivo, Lolium spp.; conditions: post-emergence (PO, BBCH 11); dose g of AS/ha: flufenacet 60, aclonifen 150, diflufenican 37.5, (A)+(B)+(C) 60+150+37.5, pinoxaden+cloquintocet-mexyl 60+15, mesosulfuron+iodosulfuron+mefenpyr 15+3+45
Description: (§1) In the standard implementation of the test, seeds of various broad-leaved weed and weed grass biotypes (origins) were sown in an 8-13 cm diameter pot filled with natural soil of a standard field soil (loamy silt; non-sterile) and covered with a covering soil layer of about 1 cm. The pots were then cultivated in a greenhouse (12-16 h light, temperature day 20-22° C., night 15-18° C.) until the time of application. The pots were treated on a laboratory track sprayer with spray liquors comprising the compositions according to the invention, mixtures of the prior art or the components applied individually. Application of the active compounds or active compound combinations formulated as WG, WP, EC or otherwise was carried out at the appropriate growth stages of the plants. The amount of water used for spray application was 100-600 I/ha. After the treatment, the plants were returned to the greenhouses.
(§2) About 3 weeks after the application, the soil action or/and foliar action was assessed visually according to a scale of 0-100% in comparison to an untreated comparative group: 0%=no noticable effect compared to the untreated comparative group; 100%=full effect compared to the untreated comparative group.
(§3) 2. Post-emergence action against weeds: seeds of various broad-leaved weed and weed grass biotypes (origins) were sown in an 8-13 cm diameter pot filled with natural soil of a standard field soil (loamy silt; non-sterile) and covered with a covering soil layer of about 1 cm. […]
(§4) Insofar as herbicidal effects of the compositions according to the invention compared to mixtures of the prior art or compared to components applied individually against economically important mono- and dicotyledonous harmful plants were the center of attention, the synergistic herbicidal activities were calculated using Colby's formula (cf. S. R. Colby; Weeds 15 (1967), 20-22): E^C=(A+B+C)−(A×B+A×C+B×C)/100+(A×B×C)/10000 […]
(§5) Δ=difference (%) of the measured value (%) to the expected value (%) (measured value minus expected value) […]

[2] = tested on: LOLSS resistant to HRAC group A; experiment: Greenhouse post-emergence herbicidal action on resistant Lolium biotype (HRAC group A resistant); format: in vivo, Lolium spp.; conditions: post-emergence (PO, BBCH 11); dose g of AS/ha: flufenacet 60, aclonifen 150, diflufenican 37.5, (A)+(B)+(C) 60+150+37.5, pinoxaden+cloquintocet-mexyl 60+15, mesosulfuron+iodosulfuron+mefenpyr 15+3+45
Description: as §1, §2, §3, §4, §5

Row | Compound | herbicidal effect (visual score 0-100% vs untreated), LOLSS resistant to HRAC group B [1] | herbicidal effect (visual score 0-100% vs untreated), LOLSS resistant to HRAC group A [2]
1 | O=C(Nc1ccc(F)cc1F)c1cccnc1Oc1cccc(C(F)(F)F)c1 [diflufenican (C), N-(2,4-difluorophenyl)-2-[3-(trifluoromethyl)phenoxy]-3-pyridinecarboxamide] | 35% | 23%
2 | CC(C)N(C(=O)COc1nnc(C(F)(F)F)s1)c1ccc(F)cc1 [flufenacet (A), N-(4-fluorophenyl)-N-(1-methylethyl)-2-[[5-(trifluoromethyl)-1,3,4-thiadiazol-2-yl]oxy]acetamide] | 60% | 18%
3 | Nc1c([N+](=O)[O-])ccc(Oc2ccccc2)c1Cl [aclonifen (B), 2-chloro-6-nitro-3-phenoxybenzenamine] | 38% | 5%
